Test results as given in patent publication US4897254A, “Radioactive compositions for the treatment of calcific tumors” (priority 1987, dated 1990).

Columns and labels:
[1] = cited from earlier work
[2] = two-hour rat biodistribution after tail vein injection (NaI scintillation counting of dissected tissues); details: in vivo
Description: Quantitative biodistributions were obtained by injecting 50-100 microliters of the composition into the tail vein of unanesthetized male Sprague Dawley rats. The rats were then placed in cages lined with absorbent paper in order to collect all urine excreted prior to sacrifice. After a given period of time, the rats were sacrificed by cervical dislocation and the various tissues dissected. The samples were then rinsed with saline, blotted dry on absorbent paper and weighed.

[3] = radionuclide; cited from earlier work
[4] = patients with metastatic bone lesions

In the case of `NC(c1ccc(O)c([131I])c1)(P(=O)(O)O)P(=O)(O)O` [α-amino-(3-iodo-4-hydroxybenzylidene)diphosphonate], the possible metabolite ([1]; in vivo) is given as “iodide as one of the possible metabolites”.
With “Sm-153-diethylenetriaminepentaacetic acid [Sm-153-DTPA]” the “skeletal uptake (in words)” value [2] was “low skeletal uptake”.
For “Sm-153-nitrilotriacetic acid [Sm-153-NTA]”, the “liver uptake (in words)” value [2] was “high liver uptake”.
In the case of Strontium-89, the blood levels [1, 4] is listed as “high blood levels”, the “lesion to normal bone ratios” value [1, 4] is listed as “low lesion to normal bone ratios” and the half-life [3] is listed as 50.4 days.
